From patent publication US11612600B2, “Pharmaceutical composition comprising macitentan for the treatment of chronic thromboembolic pulmonary hypertension” (ACTELION PHARMACEUTICALS LTD, priority 2019, dated 2023)
pEC50: −log10 of the molar value.

Columns and labels:
[1] = Drug-drug interaction in general
human PXR = biological target: T1, human PXR (Homo sapiens, UniProt O75469); assay: Activation of human PXR; assay type: cell-based
T1 sequence (O75469 1-434): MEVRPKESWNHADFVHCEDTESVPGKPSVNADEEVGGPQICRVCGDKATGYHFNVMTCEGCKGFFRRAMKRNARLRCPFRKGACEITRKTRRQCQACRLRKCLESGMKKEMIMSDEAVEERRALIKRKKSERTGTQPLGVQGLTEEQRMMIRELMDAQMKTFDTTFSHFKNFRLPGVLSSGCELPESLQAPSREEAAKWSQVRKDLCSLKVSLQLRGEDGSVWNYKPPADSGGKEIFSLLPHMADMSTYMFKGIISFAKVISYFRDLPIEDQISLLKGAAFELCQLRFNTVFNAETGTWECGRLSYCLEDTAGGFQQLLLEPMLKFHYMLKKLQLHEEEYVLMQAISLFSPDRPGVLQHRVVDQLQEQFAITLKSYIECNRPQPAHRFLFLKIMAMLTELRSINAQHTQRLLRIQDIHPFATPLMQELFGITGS

CYP3A4 = CYP3A4 induction in human hepatocytes; assay type: in vitro ADME
[2] = Predicted plasma concentrations in PAH patients at 75 mg per day; assay type: in vivo, human; conditions: macitentan 75 mg per day; for predicted peak plasma concentration: PAH patients, based on PK Sub-study, assuming dose linearity; for expected free plasma concentration: taking into account protein binding
Method: Predicted peak plasma concentrations of macitentan and ACT-132577 in PAH patients at 75 mg per day dose are expected to be around 5 μM and 14 μM, respectively, based on the PK Sub-study and assuming dose linearity. […] It is not likely that these unbound concentrations of macitentan and ACT-132577 result in any inhibition of BCRP in the liver or kidney or induction of CYP3A4 enzyme in the liver.

[3] = cited from earlier work
ET receptors = conditions: cited from earlier work
[4] = continuous IV infusion, patients with PVR greater than 1200 dynes·s·cm^−5 before PEA surgery; cited from earlier work
BCRP transporters = biological target: T2, BCRP transporters (Homo sapiens, UniProt Q9UNQ0); assay: Effect of macitentan on rosuvastatin pharmacokinetics; assay type: in vivo; conditions: macitentan 10 mg per day o.d.
T2 construct: BCRP is an efflux pump located in the gut, liver canalicular membrane, and kidney; from tissue; host or cells: in vivo: gut, liver canalicular membrane, kidney
T2 sequence (Q9UNQ0 1-655): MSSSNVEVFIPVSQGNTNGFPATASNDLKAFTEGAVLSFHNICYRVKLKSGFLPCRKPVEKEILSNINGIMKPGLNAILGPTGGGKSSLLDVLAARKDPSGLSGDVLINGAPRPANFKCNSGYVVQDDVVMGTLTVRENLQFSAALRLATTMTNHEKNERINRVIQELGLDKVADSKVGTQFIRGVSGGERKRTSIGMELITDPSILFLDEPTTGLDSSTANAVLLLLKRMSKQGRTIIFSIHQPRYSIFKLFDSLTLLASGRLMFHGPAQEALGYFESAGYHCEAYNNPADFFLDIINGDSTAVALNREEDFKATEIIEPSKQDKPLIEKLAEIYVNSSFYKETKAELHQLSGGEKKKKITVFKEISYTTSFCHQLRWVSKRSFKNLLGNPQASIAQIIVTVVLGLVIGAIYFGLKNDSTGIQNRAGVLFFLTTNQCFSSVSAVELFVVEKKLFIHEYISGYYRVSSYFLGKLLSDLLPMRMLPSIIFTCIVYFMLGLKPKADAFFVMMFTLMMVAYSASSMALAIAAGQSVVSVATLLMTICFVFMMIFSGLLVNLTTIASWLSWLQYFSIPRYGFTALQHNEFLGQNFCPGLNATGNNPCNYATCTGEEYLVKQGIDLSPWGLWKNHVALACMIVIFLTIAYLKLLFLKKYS
Source text: BCRP is an efflux pump located in the gut, liver canalicular membrane, and kidney, and is exposed to intracellular drug concentrations in the liver and the kidney.

[5] = Effect of macitentan on decrease in hemoglobin concentration, pooled Phase I studies, Emax fit; assay type: in vivo, human; conditions: healthy volunteers
Source text: Hemoglobin measurements were pooled from 3 Phase I clinical studies in healthy volunteers: • Study AC-055-102: Investigation of the PK, PD, safety and tolerability of macitentan in male subjects (the study protocol is described in the following publication: Sidharta et al., Safety, tolerability, pharmacokinetics, and pharmacodynamics of macitentan, an endothelin receptor antagonist, in an ascending multiple-dose study in healthy subjects. J. Clin. Pharmacol. (2013), 53(11), 1131-1138) • Study AC-055-116: Investigation of the PK, PD, safety and tolerability of macitentan in male Japanese subjects (the study protocol is described in the following publication: Yokoyama et al., Tolerability, Safety, Pharmacokinetics, and Pharmacodynamics of Macitentan, a New Endothelin Receptor Antagonist, in Healthy Japanese Male Subjects. Rinsho yakuri/Japanese Journal of Clinical Pharmacology and Therapeutics (2016), 47, 143-150) • Study AC-055-117: Investigation of the PK, PD, safety and tolerability of macitentan in male Korean subjects (the study protocol is described in the following publication: Ahn et al., Pharmacokinetic-pharmacodynamic relationships of macitentan, a new endothelin receptor antagonist, after multiple dosing in healthy Korean subjects, Am. […]
Hemoglobin concentrations measured in the morning of Day 11 of macitentan treatment and at baseline on Day −1 were used in the analysis. […]

[6] = rats, cited from earlier work
plasma ET-1 = conditions: healthy human subjects; 1, 3, 10, 30 mg; cited from earlier work

| Compound | drug-drug interaction [1] | pEC50 (human PXR) | CYP3A4 mRNA and enzyme activity (CYP3A4) | predicted peak plasma concentration [2] | expected free plasma concentration [2] | time to peak plasma concentration ([3]; after the first dose of macitentan) | half-life ([3]; in humans) | plasma concentrations relative to macitentan ([3]; in vivo) | affinity for the ET receptors relative to parent compound (ET receptors) | effect on preoperative cardiac output and PVR [4] | effect on the pharmacokinetics of 1 mg rosuvastatin (BCRP transporters) | dose at which the effect on hemoglobin decrease plateaus [5] | maximum effect on hemoglobin decrease (Emax) ([5]; Day 11 vs baseline Day −1) | absorption into the plasma ([3]; in humans) | time to steady state ([3]; in humans) | dose of maximal or near-maximal effect ([6]; EMA Assessment Report) | maximal effective dose [6] | plasma ET-1 concentrations at steady-state (plasma ET-1) |
| --- | --- | --- | --- | --- | --- | --- | --- | --- | --- | --- | --- | --- | --- | --- | --- | --- | --- | --- |
| NS(=O)(=O)Nc1ncnc(OCCOc2ncc(Br)cn2)c1-c1ccc(Br)cc1 [ACT-132577] | No Drug-Drug Interaction has been observed | 5.06 to 5.14 | concentration-dependent increases | ~14 µM | 0.07 µM | about 30 hours | approximately 48 hours | higher plasma concentrations than macitentan | lower affinity |  |  |  |  |  |  |  |  |  |
| CCCCC[C@H](O)/C=C/[C@@H]1[C@H]2C/C(=C/CCCC(=O)O)O[C@H]2C[C@H]1O [epoprostenol] |  |  |  |  |  |  |  |  |  | may significantly increase preoperative cardiac output and reduces PVR |  |  |  |  |  |  |  |  |
| CCCNS(=O)(=O)Nc1ncnc(OCCOc2ncc(Br)cn2)c1-c1ccc(Br)cc1 [macitentan, propylsulfamic acid [5-(4-bromo-phenyl)-6-[2-(5-bromo-pyrimidin-2-yloxy)-ethoxy]-pyrimidin-4-yl]-amide] | No Drug-Drug Interaction has been observed | 5.92 to 5.96 | concentration-dependent increases | around 5 μM | 0.02 µM |  | about 16 hours |  |  |  | has not shown any effect | 10 mg | around 1.23 g/dL | absorbed slowly | by the third day of administration | 10 mg/kg | 30 mg/kg | no further increase beyond the 10 mg oral dose |
